The results in this text go back to patent publication US8680290B2, “Isoxazoline derivatives and their use as herbicides” (Syngenta Limited, priority 2004, dated 2014).

Experiment [1] relates to Monocotyledonous and dicotyledonous test plants. Briefly: Example B1 herbicidal action, application pre-emergence (Table B1b). The experiment is classed as in vivo. The following applies: 250 g/ha, evaluated after 4 weeks. The method, boiled down:
(§1)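 Visual damage rating, 10 = plant dead and 0 = unharmed, taken at 3 weeks for post-emergence and 4 weeks for pre-emergence treatment. Application by spray of formulated aqueous solution either immediately after sowing or at 8–9 days' growth, with mono- and dicot plants kept in a greenhouse.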

For experiment [2] the test system is unchanged. Kind of experiment: Example B1 herbicidal action, application post-emergence (Table B1a). The experiment is classed as in vivo. As to conditions: 250 g/ha, evaluated after 3 weeks, scale 0-10. Summed up:
as §1

For the molecule `CC1(C)CC(S(=O)(=O)C(Cl)c2cccnc2Cl)=NO1` (stereo not shown) [8.01], in experiment [1], the “herbicidal action (damage rating 0-10), Amaranthus” value (shortened to “herbicidal action … Amaranthus”) is on record as 5; the “herbicidal action (damage rating 0-10), Digitaria” value (“herbicidal action … Digitaria” for short) was found to be 8; the “herbicidal action (damage rating 0-10), Panicum” value (shortened to “herbicidal action … Panicum”) is given as 8; the “herbicidal action (damage rating 0-10), Setaria” value (from here on “herbicidal action … Setaria”) was found to be 5. For the same molecule, the “herbicidal action (damage rating 0-10), Sida” value (“herbicidal action … Sida” for short) in experiment [1] is listed as 0. Further, in experiment [2], the “herbicidal damage rating, Abutilon” value worked out at 3; the “herbicidal damage rating, Amaranthus” value came out at 0; the “herbicidal damage rating, Digitaria” value worked out at 0; the “herbicidal damage rating, Panicum” value stood at 3. In addition, in experiment [2], the “herbicidal damage rating, Setaria” value is on record as 0 and the “herbicidal damage rating, Sida” value came to 3.
Turning to `Cc1ccc(F)c(C(F)(Cl)S(=O)(=O)C2=NOC(C)(C)C2)c1F` (stereo not shown) [1.146], in experiment [1], the “herbicidal action … Amaranthus” value was determined as 8; the “herbicidal action … Digitaria” value worked out at 10; the “herbicidal action … Panicum” value is 10; the “herbicidal action … Setaria” value amounted to 10. Moreover, the “herbicidal action … Sida” value in experiment [1] was 5. For the same molecule, in experiment [2], the “herbicidal damage rating, Abutilon” value is reported as 5; the “herbicidal damage rating, Amaranthus” value is 3; the “herbicidal damage rating, Digitaria” value was determined as 8; the “herbicidal damage rating, Panicum” value worked out at 5. Besides, in experiment [2], the “herbicidal damage rating, Setaria” value was found to be 6 and the “herbicidal damage rating, Sida” value is given as 2.
Regarding `CC1(C)CC(S(=O)(=O)C(F)(F)c2ccccc2C(F)(F)F)=NO1` [1.65], in experiment [1], the “herbicidal action … Amaranthus” value turned out to be 10; the “herbicidal action … Digitaria” value is recorded as 10; the “herbicidal action … Panicum” value is listed as 10; the “herbicidal action … Setaria” value is 10. Further, the “herbicidal action … Sida” value in experiment [1] was found to be 8. Further, in experiment [2], the “herbicidal damage rating, Abutilon” value is 2; the “herbicidal damage rating, Amaranthus” value worked out at 0; the “herbicidal damage rating, Digitaria” value was 8; the “herbicidal damage rating, Panicum” value was 7. Besides, in experiment [2], the “herbicidal damage rating, Setaria” value came to 5 and the “herbicidal damage rating, Sida” value is 2.
In the case of `CC1(C)CC(S(=O)(=O)C(F)(I)c2c(F)cccc2F)=NO1` (racemic) [Compound No. 1.61], in experiment [1], the “herbicidal action … Amaranthus” value is given as 10; the “herbicidal action … Digitaria” value was 10; the “herbicidal action … Panicum” value came to 10; the “herbicidal action … Setaria” value was 10. Also, the “herbicidal action … Sida” value in experiment [1] came out at 7. Besides, in experiment [2], the “herbicidal damage rating, Abutilon” value came out at 3; the “herbicidal damage rating, Amaranthus” value was found to be 0; the “herbicidal damage rating, Digitaria” value came out at 7; the “herbicidal damage rating, Panicum” value stood at 4. In experiment [2], the “herbicidal damage rating, Setaria” value came out at 6 and the “herbicidal damage rating, Sida” value is 3.
For `Cn1nc(C(F)(F)F)c(C(F)(F)S(=O)(=O)C2=NOC(C)(C)C2)c1OCC(F)(F)F` [2.01], in experiment [1], the “herbicidal action … Amaranthus” value came out at 10; the “herbicidal action … Digitaria” value is listed as 10; the “herbicidal action … Panicum” value came out at 10; the “herbicidal action … Setaria” value amounted to 10. Moreover, the “herbicidal action … Sida” value in experiment [1] was found to be 9. Also, in experiment [2], the “herbicidal damage rating, Abutilon” value is recorded as 8; the “herbicidal damage rating, Amaranthus” value was found to be 5; the “herbicidal damage rating, Digitaria” value is recorded as 7; the “herbicidal damage rating, Panicum” value is on record as 5. In experiment [2], the “herbicidal damage rating, Setaria” value is given as 5 and the “herbicidal damage rating, Sida” value is recorded as 6.
For `CC1(C)CC(S(=O)(=O)C(F)(F)c2cc(F)cc(F)c2)=NO1` [1.115], in experiment [1], the “herbicidal action … Amaranthus” value worked out at 10; the “herbicidal action … Digitaria” value is given as 10; the “herbicidal action … Panicum” value was 10; the “herbicidal action … Setaria” value was found to be 10. Moreover, in experiment [1], the “herbicidal action … Sida” value was 8. In experiment [2], the “herbicidal damage rating, Abutilon” value amounted to 2; the “herbicidal damage rating, Amaranthus” value was determined as 5; the “herbicidal damage rating, Digitaria” value came out at 8; the “herbicidal damage rating, Panicum” value was found to be 8. Moreover, in experiment [2], the “herbicidal damage rating, Setaria” value came to 7 and the “herbicidal damage rating, Sida” value is given as 0.
`Cc1ccc(F)c(C(Br)S(=O)(=O)C2=NOC(C)(C)C2)c1F` (stereo not shown) [1.102]: in experiment [1], the “herbicidal action … Amaranthus” value is recorded as 8; the “herbicidal action … Digitaria” value was found to be 10; the “herbicidal action … Panicum” value stood at 10; the “herbicidal action … Setaria” value is given as 9. Besides, in experiment [1], the “herbicidal action … Sida” value was 2. In experiment [2], the “herbicidal damage rating, Abutilon” value was found to be 0; the “herbicidal damage rating, Amaranthus” value was 0; the “herbicidal damage rating, Digitaria” value was determined as 8; the “herbicidal damage rating, Panicum” value was determined as 5. In experiment [2], the “herbicidal damage rating, Setaria” value is given as 4 and the “herbicidal damage rating, Sida” value was 2.
With `CC1(C)CC(S(=O)(=O)C(F)(Cl)c2ccccc2[S+]([O-])C(F)(F)F)=NO1` (stereo not shown) [1.97], in experiment [1], the “herbicidal action … Amaranthus” value was 8; the “herbicidal action … Digitaria” value is listed as 10; the “herbicidal action … Panicum” value is reported as 10; the “herbicidal action … Setaria” value is recorded as 9. Moreover, in experiment [1], the “herbicidal action … Sida” value was 0. Further, in experiment [2], the “herbicidal damage rating, Abutilon” value is listed as 4; the “herbicidal damage rating, Amaranthus” value amounted to 5; the “herbicidal damage rating, Digitaria” value was 8; the “herbicidal damage rating, Panicum” value is 5. Besides, in experiment [2], the “herbicidal damage rating, Setaria” value came to 7 and the “herbicidal damage rating, Sida” value came to 0.
Take `Cn1nc(C(F)(F)F)c(C(F)(Cl)S(=O)(=O)C2=NOC(C)(C)C2)c1OC(F)F` (stereo not shown) [2.14]: in experiment [1], the “herbicidal action … Amaranthus” value turned out to be 10; the “herbicidal action … Digitaria” value came to 10; the “herbicidal action … Panicum” value is 10; the “herbicidal action … Setaria” value amounted to 10. Moreover, the “herbicidal action … Sida” value in experiment [1] was 9. Further, in experiment [2], the “herbicidal damage rating, Abutilon” value was found to be 7; the “herbicidal damage rating, Amaranthus” value came out at 8; the “herbicidal damage rating, Digitaria” value is recorded as 7; the “herbicidal damage rating, Panicum” value came out at 7. Also, in experiment [2], the “herbicidal damage rating, Setaria” value was 4 and the “herbicidal damage rating, Sida” value turned out to be 7.
`CC1(C)CC(S(=O)(=O)C(F)(F)c2ccc(F)cc2F)=NO1` [1.118]: in experiment [1], the “herbicidal action … Amaranthus” value is given as 10; the “herbicidal action … Digitaria” value was determined as 10; the “herbicidal action … Panicum” value is on record as 10; the “herbicidal action … Setaria” value was 10. Also, the “herbicidal action … Sida” value in experiment [1] amounted to 8. In experiment [2], the “herbicidal damage rating, Abutilon” value is listed as 5; the “herbicidal damage rating, Amaranthus” value is reported as 3; the “herbicidal damage rating, Digitaria” value stood at 8; the “herbicidal damage rating, Panicum” value worked out at 5. In addition, in experiment [2], the “herbicidal damage rating, Setaria” value is reported as 7 and the “herbicidal damage rating, Sida” value is 3.
With `CC1(C)CC(S(=O)(=O)C(F)(F)c2ccccc2C#N)=NO1` [1.72], in experiment [1], the “herbicidal action … Amaranthus” value is 10; the “herbicidal action … Digitaria” value worked out at 10; the “herbicidal action … Panicum” value is given as 10; the “herbicidal action … Setaria” value is recorded as 10. In experiment [1], the “herbicidal action … Sida” value was 6. In experiment [2], the “herbicidal damage rating, Abutilon” value turned out to be 3; the “herbicidal damage rating, Amaranthus” value is on record as 8; the “herbicidal damage rating, Digitaria” value turned out to be 7; the “herbicidal damage rating, Panicum” value is recorded as 7. In experiment [2], the “herbicidal damage rating, Setaria” value was found to be 8 and the “herbicidal damage rating, Sida” value is 0.
`CC1(C)CC(S(=O)(=O)C(F)(F)c2cc(F)cc3c2OCOC3)=NO1` [1.109]: in experiment [1], the “herbicidal action … Amaranthus” value is 10; the “herbicidal action … Digitaria” value was 10; the “herbicidal action … Panicum” value is reported as 10; the “herbicidal action … Setaria” value is recorded as 9. In addition, the “herbicidal action … Sida” value in experiment [1] is on record as 0. In experiment [2], the “herbicidal damage rating, Abutilon” value is listed as 6; the “herbicidal damage rating, Amaranthus” value was 5; the “herbicidal damage rating, Digitaria” value is reported as 6; the “herbicidal damage rating, Panicum” value is recorded as 5. Moreover, in experiment [2], the “herbicidal damage rating, Setaria” value is reported as 3 and the “herbicidal damage rating, Sida” value is given as 2.
For the molecule `CC1(C)CC(S(=O)(=O)C(F)(Cl)c2ccccc2OC(F)(F)F)=NO1` (stereo not shown) [1.144], in experiment [1], the “herbicidal action … Amaranthus” value amounted to 10; the “herbicidal action … Digitaria” value amounted to 10; the “herbicidal action … Panicum” value was 10; the “herbicidal action … Setaria” value was 10. Besides, in experiment [1], the “herbicidal action … Sida” value turned out to be 8. Besides, in experiment [2], the “herbicidal damage rating, Abutilon” value came to 3; the “herbicidal damage rating, Amaranthus” value is 3; the “herbicidal damage rating, Digitaria” value was 8; the “herbicidal damage rating, Panicum” value is reported as 7. Besides, in experiment [2], the “herbicidal damage rating, Setaria” value stood at 7 and the “herbicidal damage rating, Sida” value is 5.
As to `CC1(C)CC(S(=O)(=O)C(Br)c2cccc(F)c2F)=NO1` (stereo not shown) [1.132], in experiment [1], the “herbicidal action … Amaranthus” value is reported as 10; the “herbicidal action … Digitaria” value is 10; the “herbicidal action … Panicum” value came out at 10; the “herbicidal action … Setaria” value is on record as 10. In addition, the “herbicidal action … Sida” value in experiment [1] was found to be 4. For the same molecule, in experiment [2], the “herbicidal damage rating, Abutilon” value turned out to be 3; the “herbicidal damage rating, Amaranthus” value turned out to be 3; the “herbicidal damage rating, Digitaria” value was found to be 8; the “herbicidal damage rating, Panicum” value was determined as 8. In experiment [2], the “herbicidal damage rating, Setaria” value amounted to 5 and the “herbicidal damage rating, Sida” value came out at 0.
